# Test system: P.infestans (A2 mating type, resistant to metalaxyl)
# Type: in vivo, Phytophthora infestans
# Settings: Potato, 500 ppm, 6 days after inoculation
row,SMILES,Control efficacy (%) 6d
1,"CCCCCCCOC(=O)CC(C)NC(=O)c1ccc(C(C)(C)C)cc1 (stereo not shown) [compound 15, D,L N-4-tertbutylbenzoyl-3-aminobutyric acid heptyl ester]",79%
2,"CCCCCCCCOC(=O)CC(C)NC(=O)c1ccc(-c2cccs2)cc1 (stereo not shown) [compound 48, D,L N-4-2-thiophenebenzoyl-3-aminobutyric acid octyl ester]",82%
3,"CCCCCCCOC(=O)CC(C)NC(=O)c1cc(C)cc(C)c1 (stereo not shown) [compound 13, D,L N-3,5-dimethylbezoyl-3-aminobutyric acid heptyl ester]",84%
4,"CCCCCCCOC(=O)CC(C)NC(=O)c1ccc(OC)cc1 (stereo not shown) [compound 12, D,L N-4-methoxybenzoyl-3-aminobutyric acid heptyl ester]",89%
5,"CCCCC(C)OC(=O)CC(C)NC(=O)c1ccc(-c2cccs2)cc1 (stereo not shown) [compound 49, D,L N-4-2-thiophenebenzoyl-3-aminobutyric acid 1-methylpentyl ester]",75%
6,"CC(CC(=O)OCCC(Cl)(Cl)Cl)NS(=O)(=O)c1ccccc1 (stereo not shown) [compound 19, D,L N-benzenesulfonyl-3-aminobutyric acid 2-(trichloromethyl)ethyl ester]",75%
7,"CC(CC(=O)OCCCc1ccccc1)NS(=O)(=O)c1ccccc1 (stereo not shown) [compound 17, D,L N-benzenesulfonyl-3-aminobutyric acid 3-phenylpropyl ester]",76%
8,"CCCCCCCOC(=O)CC(C)NC(=O)c1c(F)cccc1F (stereo not shown) [compound 14, D,L N-2,6-difluorobenzoyl-3-aminobutyric acid heptyl ester]",79%
9,"CCCCC(C)OC(=O)CC(C)NS(=O)(=O)c1ccc(Cl)cc1 (stereo not shown) [compound 50, D,L N-4-chlorobenzensulfonyl-3-aminobutyric acid 1-methylpentyl ester]",77%
10,"CCCCC(C)OC(=O)CC(C)NS(=O)(=O)c1ccc(C)cc1 (stereo not shown) [compound 16, D,L N-4-methylbenzenesulfonyl-3-aminobutyric acid i-methylpentyl ester]",79%
11,"CCC(C)OC(=O)CC(C)NS(=O)(=O)c1ccc(C)cc1 (stereo not shown) [compound 20, D,L N-4-methylbenzenesulfonyl-3-aminobutyric 1-methylpropyll ester]",75%
12,"CCCC(C)OC(=O)CC(C)NC(=O)c1ccc(C)c(C)c1 (stereo not shown) [compound 21, D,L N-3,4-dimethylbezoyl-3-aminobutyric acid 1-methylbutyl ester]",73%
13,"CCCCC(C)OC(=O)CC(C)NC(=O)c1ccc(Cl)cc1 (stereo not shown) [compound 18, D,L N-4-cholrobenzoyl-3-aminobutyric acid 1-methylpentyl ester]",76%
14,"CC(CC(=O)OCCCc1ccccc1)NS(=O)(=O)c1ccccc1 (stereo not shown) [compound 51, D,L N-benzensulphonyl-3-aminobutyric acid 3-phenylpropyl ester]",76%
15,"CCCCCCCOC(=O)CC(C)NC(=O)c1cccc(C)c1 (stereo not shown) [compound 22, D,L N-3-methylbezoyl-3-aminobutyric acid heptyl ester]",70%
16,"CCCCC(C)OC(=O)CC(C)NC(=O)c1ccccc1NC (stereo not shown) [compound 52, D,L N-2-methylaminobenzoyl-3-aminobutyric acid 1-methylpentyl ester]",74%

# — patent US6348614B1 (priority 1996, dated 2002)
